Key:
[1] = 101 kPa, Liquid
[2] = xn = mol fraction of the nth substance listed; conditions: 101 kPa, Liquid

c1ccccc1 [benzene]
[1]
Conditions | mass density [kg/m3]
288.15 K | 884.25
293.15 K | 878.92
298.15 K | 873.58
303.15 K | 868.23
308.15 K | 862.87
313.15 K | 857.5

CCC(C)O (stereo not given) [butan-2-ol] + ClC(Cl)Cl
[2], x1 = 1
Conditions | mass density [kg/m3]
288.15 K | 810.64
293.15 K | 806.59
298.15 K | 802.47
303.15 K | 798.27
308.15 K | 793.97
313.15 K | 789.59

CCC(C)O (stereo not given) [butan-2-ol]
[1]
Conditions | mass density [kg/m3]
288.15 K | 810.64
293.15 K | 806.59
298.15 K | 802.47
303.15 K | 798.27
308.15 K | 793.97
313.15 K | 789.59

ClC(Cl)Cl [trichloromethane]
[1]
Conditions | mass density [kg/m3]
288.15 K | 1498.08
293.15 K | 1488.64
298.15 K | 1479.15
303.15 K | 1469.61
308.15 K | 1460.03
313.15 K | 1450.41

c1ccccc1 [benzene] + CCC(C)O
[2], x2 = 0
Conditions | mass density [kg/m3]
288.15 K | 884.25
293.15 K | 878.92
298.15 K | 873.58
303.15 K | 868.23
308.15 K | 862.87
313.15 K | 857.5

From the NIST ThermoML archive (doi:10.1021/je800157v)
